Assays:
human AIM2 protein = target: T1, human AIM2 protein (Homo sapiens, UniProt O14862); test: Affinity by surface-plasmon resonance (Biacore), amino coupling; settings: human full-length AIM2 protein, SPR; read-out: binding constant
T1 construct: a human full-length AIM2 protein is expressed and purified firstly by pET28a vector; made in house
T1 sequence (O14862 1-343): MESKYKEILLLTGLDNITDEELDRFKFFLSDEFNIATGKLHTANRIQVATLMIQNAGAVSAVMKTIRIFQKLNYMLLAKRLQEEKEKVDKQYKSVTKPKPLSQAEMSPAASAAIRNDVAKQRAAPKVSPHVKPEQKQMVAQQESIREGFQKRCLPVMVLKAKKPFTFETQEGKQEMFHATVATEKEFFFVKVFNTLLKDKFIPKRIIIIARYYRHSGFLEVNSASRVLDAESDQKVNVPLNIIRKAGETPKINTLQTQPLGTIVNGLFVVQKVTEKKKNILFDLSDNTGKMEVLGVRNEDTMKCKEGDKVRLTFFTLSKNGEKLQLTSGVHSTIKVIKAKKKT
Procedure: (§1) In the embodiment of the disclosure, the affinity between SLD-1 and human AIM2 protein is detected. Specifically, a human full-length AIM2 protein is expressed and purified firstly by pET28a vector, and then the affinity is determined by CMS chip amino-coupling method through a surface-plasmon resonance (SPR) method of Biacore.

[1] = tested on: IL-1β mRNA in HaCaT cells; test: Screening in HaCaT cell model stimulated by OligodA-T, real-time PCR of IL-1β mRNA; type: cell-based; settings: 10 uM, 24 hours, OligodA-T 1 ug/mL, among 100 compounds
Procedure: The protective ability of 100 compounds screened above against cell pyroptosis of HaCaT cells stimulated by OligodA-T is evaluated by the real-time fluorescent quantitative polymerase chain reaction (PCR) detection of IL-1β mRNA in the stimulated cells.
1. Positive control (PC) and negative control (NC) are set in the experimental group. An inclusion of Lip3000 (Lipofectamine™ 3000 Transfection Reagent) and OligodA-T (OligodA-T:Lip3000:P3000=1:1:25, a concentration of OligodA-T is 1 microgram per […] (ug/mL)) is used to transfect HaCat cells. Lip3000-OligodA-T and 10 micromoles per liter (uM) small molecule inhibitor are used to transfect the HaCat cells in each treatment group, and only the same amount of transfection reagent (Lip3000:P3000=1:1) is added in NC group.
2. Each experimental group is incubated in a cell incubator containing 5% CO2 for 24 hours at 37° C., and the cells are collected for real-time fluorescence PCR detection.

[2] = tested on: AIM2 pathway in mouse skin; test: IMQ psoriasis mouse model: AIM2 pathway gene transcription and protein levels in skin; type: in vivo, C57/BL6 mice
Procedure: (§2) Dimethyl sulfoxide (DMSO) is used to dissolve SLD-1 powder, the powder is weighed according to different dosage, then diluted with β-cyclodextrin, and a final concentration of DMSO shall not exceed 5%. The dose gradients of SLD-1 set are 0 mg/kg, 2.5 mg/kg, 5 mg/kg and 10 mg/kg respectively. Each mouse is calculated as 20 grams (g), and 0 mg, 0.05 mg, 0.1 mg and 0.2 mg of SLD-1 are administered respective mice every day.
(§3) Seven-week-old C57/BL6 mice are selected, fed and modeled in a […] (SPF) environment. The experimental groups are as follows: • (1) mouse skin smeared with IMQ and 0 mg/kg of SLD-1; • (2) mouse skin smeared with IMQ and 2.5mg/kg of SLD-1; • (3) mouse skin smeared with IMQ and 5 mg/kg of SLD-1; • (4) mouse skin smeared with IMQ and 10 mg/kg of SLD-1; • (5) mouse skin smeared with Vaseline and 0 mg/kg of SLD-1; • (6) mouse skin smeared with Vaseline and 2.5mg/kg of SLD-1; • (7) mouse skin smeared with Vaseline and 5 mg/kg of SLD-1; and • (8) mouse skin smeared with Vaseline and 10 mg/kg of SLD-1.
(§4) Six mice in each group are shaved back hair to make a exposed skin reach 4 square centimeters. A start date of the experiment is set as day 0 and an end date is set as day 6. From day 0 to Day 5, 100 μL medicine solution is taken every day and evenly smeared mouse skin to absorb. From day 2 to day 5, each mouse 62.5 mg IMQ is smeared every day after 20 minutes of SLD-1 inhibitor. The mouse skins are scored every day, the mice are sacrificed on day 6, and skin tissue is taken for a series of tests.

[3] = tested on: AIM2 downstream protein in HaCaT cells; test: HaCaT cell model, expression of AIM2 downstream protein; type: cell-based; settings: 25 uM
Procedure: (§5) (1) A positive control (PC), a negative control (NC) and respective treatment groups are set. An inclusion of Lip3000 (Lipofectamine™ 3000 Transfection Reagent) and OligodA-T (OligodA-T:Lip3000:P3000=1:1:25, a concentration of OligodA-T is 1 ug/mL) is used to transfect HaCat cells, and only the same amount of transfection reagent (Lip3000:P3000=1:1) is added in NC group. The HaCat cells are co-transfected with an inclusion of Lip3000-OligodA-T at gradient doses (0.1 uM, 1 uM, 5 uM, 10 uM and 25 uM) of SLD-1 in the respective treatment groups.
(5) Moreover, the expression of AIM2 downstream protein in the HaCaT cells treated with 25 uM SLD-1 is detected, and results are shown in FIG. 12.

[4] = tested on: T lymphocytes of TCRγ/CD3+ RORγt in mouse skin; test: IMQ psoriasis mouse model: flow cytometry of skin lymphocytes; type: in vivo, C57/BL6 mice; settings: 2.5 mg/kg, compared with IMQ mice without SLD-1
Procedure: as §2, §3
Six mice in each group are shaved back hair to make a exposed skin reach 4 square centimeters. A start date of the experiment is set as day 0 and an end date is set as day 6. […] The mouse skins are scored every day, the mice are sacrificed on day 6, and skin tissue is taken for a series of tests. […]

IMQ mice = test: IMQ psoriasis mouse model: PASI scores, skin phenotype, skin pathology; type: in vivo, C57/BL6 mice
Procedure: as §2, §3, §4
PASI scores, skin phenotypes and skin pathological phenotypes of the above IMQ modeled mice are shown in FIG. 13, FIG. 14 and FIG. 15 respectively.

mouse AIM2 protein = target: T2, mouse AIM2 protein (Mus musculus, UniProt Q91VJ1); test: Affinity by surface plasmon resonance (Biacore), amino coupling; settings: mouse full-length AIM2 protein, SPR; read-out: binding constant
T2 construct: a mouse full-length AIM2 protein is expressed and purified firstly by pET28a vector; made in house
T2 sequence (Q91VJ1 1-354): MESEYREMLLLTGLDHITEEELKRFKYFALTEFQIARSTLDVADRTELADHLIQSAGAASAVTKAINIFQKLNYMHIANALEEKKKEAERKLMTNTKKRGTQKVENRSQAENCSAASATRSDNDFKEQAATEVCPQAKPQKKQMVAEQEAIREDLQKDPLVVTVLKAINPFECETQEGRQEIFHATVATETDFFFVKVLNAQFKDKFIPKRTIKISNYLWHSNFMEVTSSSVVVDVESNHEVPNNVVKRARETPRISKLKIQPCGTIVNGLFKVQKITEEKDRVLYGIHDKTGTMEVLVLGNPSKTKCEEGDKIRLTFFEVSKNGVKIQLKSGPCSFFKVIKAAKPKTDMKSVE
Procedure: as §1, with “mouse” for “human”, “amino coupling” for “amino-coupling”, “by” for “through”, “surface plasmon” for “surface-plasmon”

[5] = tested on: AIM2 pathway in HaCaT cells; test: HaCaT cell model, real-time fluorescence PCR of IL-1β and AIM2 pathway genes; type: cell-based; settings: 25 uM
Procedure: as §5
(2) The positive control (PC), negative control (NC) and the respective treatment groups are incubated in a cell incubator containing 5% CO2 at 37° C. for 24 hours, and the cells are collected for real-time fluorescence PCR detection to observe the effect of different doses of inhibitors on the activation of AIM2 pathway in the HaCaT cells.
(4) In addition, the effect of 25 uM of SLD-1 on the transcription level of genes in the AIM2 pathway of the HaCat cell model is detected, and results are shown in FIG. 11.

HaCaT cells = test: HaCaT cell model, cell state under microscope (pyroptosis); type: cell-based; settings: 25 uM, microscope 100 times and 400 times
Procedure: as §5
(3) In this situation, a cell state of 25 uM gradient is observed under microscope fields of 100 times and 400 times, and results are shown in FIG. 10.

Kd (human AIM2 protein): 10.3 µM
Kd (mouse AIM2 protein): 10.3 µM
Compound: Cn1c(=O)n(C)c2cc(C(O)COc3ccc(CNC4C5CC6CC(C5)CC4C6)cc3)ccc21 (stereo not drawn) [SLD-1]
inhibitory effect on IL-1β mRNA compared with the positive control [1]: most significant inhibitory effect (p<0.0001)
AIM2 downstream procaspase-1 and proil-1β in the mouse skin ([2]; 2.5 mg/kg): no effect
content of caspase-1p20 and IL-1βp17 in the mouse skin ([2]; 2.5 mg/kg): decreases the content of caspase-1p20 and IL-1βp17
transcription levels of AIM2 pathway genes in the mouse skin ([2]; respective groups): no significant difference
AIM2 downstream procaspase-1 and proIL-1β expression [3]: no effect
content of caspase-1p20 and IL-1βp17 [3]: reduces the content of caspase-1p20 and IL-1βp17
proportion of TCRγ/CD3+ RORγt in skin lymphocytes [4]: significantly lower
reduction effect on inflammatory phenotype of IMQ mice (IMQ mice; 2.5 mg/kg smeared on skin): the most significant
reduction effect on inflammatory phenotype of IMQ mice, comparison of doses (IMQ mice; 5 mg/kg and 10 mg/kg smeared on skin): no difference between 5 mg/kg and 10 mg/kg
inflammatory phenotype of IMQ mice (PASI, skin phenotype, pathology) (IMQ mice; three doses 2.5, 5, 10 mg/kg smeared on skin, day 0 to day 5): reduced the inflammatory phenotype of IMQ mice to varying degrees
transcription of major genes in the AIM2 pathway compared with the PC [5]: significantly decreased
IL-1β transcription levels compared to the PC ([5]; of gradient 0.1, 1, 5, 10, 25 uM, 24 hours): reduced IL-β transcription levels in the HaCat cells the most
cell state (pyroptosis, density, adhesion) (HaCaT cells): close to that of the NC, with very few transparent pyroptosis cells, a high cell density and a good adhesion
